The values below come from patent US9186361B2, “Compounds and compositions for the treatment of parasitic diseases” (Novartis AG, priority 2013, dated 2015).

A value given as a limit tells only on which side of the number the result lay.

What all share (format): cell-based
Experiment [1] deals with Leishmania donovani axenic amastigote parasites. In words: Assay for Leishmania proliferation in vitro (axenic amastigotes, Cell TiterGlo). Conditions: 48 h, 2 day incubation, read-out: L. donovani amastigotes EC50. The procedure:
Leishmania donovani axenic amastigote parasites are grown at 37° C., 5% CO2 in media made of RPMI 1640, 4 mM L-glutamine, 20% heat inactivated FBS, 100 units/ml of penicillin and 100 μg/ml of streptomycin, 23 μM Folic Acid, 100 μM Adenosine, 22 mM D-glucose, 25 mM MES. The pH of media is adjusted to 5.5 at 37° C. using HCl. 20 μL of media is first dispensed into 384 well plates and […] of the compounds of invention in DMSO are added to the plate wells. At the same time control compounds and DMSO are added to plates to serve as the positive and negative controls, respectively. 40 μL of parasite culture (9600 parasites) are then added to the plate wells. The plates are then placed into incubators. After 2 day incubation, 20 μL of Cell TiterGlo (Promega) is added to the plate wells. The luminescence signal of each well is measured using the Envision reader (Perkin Elmer). The percentage inhibition of 50%, EC50, is calculated for each of the compounds.

Experiment [2] has as its system Trypanosoma cruzi amastigotes cultured in 3T3 fibroblast cells. Briefly: Assay for proliferation of kinetoplastid parasite Trypanosoma cruzi (beta-galactosidase/CPRG readout). Conditions: NIH3T3, 144 h, Tulahuen strain in 3T3 cells, 6 day incubation, read-out: T cruzi EC50. From the text: Compounds of the invention can be assayed to measure their capacity to inhibit proliferation of kinetoplastid parasite Trypanosoma cruzi. The screening procedure is for identifying compounds with inhibitor activity against Trypanosoma cruzi amastigotes cultured in 3T3 fibroblast cells. The assay is done using the mammalian stage (amastigotes) of T. cruzi that replicates in the intracellular space of host cells. The host cells are initially infected with the culture-derived trypomastigotes that rapidly invade and then divide as amastigotes. The protocol uses the Tulahuen strain of T. cruzi that has been engineered to express the E. coli beta-galactosidase gene (Lac-Z) (Antimicr. Agents Chemoth. 40:2592, 1996). This allows for a colorimetric readout by using the substrate CPRG and an absorbance plate reader.
3T3 fibroblast cells are re-suspended in RPMI-1640 medium without phenol red medium supplemented with 10% FBS (heat inactivated), 100 μg/ml penicillin, and 100 μg/ml streptomycin. Forty μL of suspension (1,000 cells) is dispensed into 384-well plates and incubated overnight at 37° C. temperature and in atmosphere containing 5% CO2. The following day, 100 nL of compounds of the invention in DMSO are added to plate wells containing 3T3 cells. At the same time control compounds (benznidazole and nifurtimox) and DMSO are added to plates to serve as the positive and negative controls, respectively. After that, 10 μL of media containing 10,000 T. cruzi trypomastigotes are added to each plate well and plates are placed back into incubators. After 6 day incubation, 10 μL of reagent solution (0.6 mM CPRG, 0.6% NP-40 in PBS) is added to plates and incubated at room temperature for 2 hours. Absorbance is then measured on SpectraMax Gemini fluorimeter to determine relative number of T. cruzi cells present in each plate well. The percentage inhibition of 50%, EC50, is calculated for each compound.

Experiment [3] has as its system L. donovani HU3 strain in mouse peritoneal macrophages. Briefly: Proliferation of L. donovani in mouse peritoneal macrophages (SybrGreen, high-content imaging). To be noted: Leishmania donovani, Peritoneal macrophage, 120 h; infected mouse peritoneal macrophages, 5 days; read-out: L. donavani Macrophage EC50. The source says: The activity of a compound according to the present invention for inhibition of parasitemai can be assessed by the parasite proliferation assay. The assay measures the increase in the parasite number in the assayed plate well using a DNA intercalating dye, SYBR Green I® dye (INVITROGEN) to stain Leishmania cell nuclei. It is understood that the assays illustrate the invention without in any way limiting the scope of the invention.
L. donovani HU3 strain is propagated by infecting BALBc mice through tail vein injection with 10^7 Leishmania parasites. Infected mice are allowed to develop infection during 9-11 weeks post-infection. During this time, the parasites accumulate in the infected mouse spleens to large numbers, and the infected mice serve as the source of parasites for the in vitro measurement of compound efficacies. To assay a compound for anti-leishmanial activity, peritoneal macrophages isolated from non-infected BALBc mice are seeded into 384-well plates at density 2×10^4 macrophages per well in 25 mL of medium (RPMI1640, 10% fetal serum albumin, 10 mM HEPES, 1 mM sodium pyruvate, 1% Pen/Strep). Subsequently, the seeded plates are placed into an incubator set to maintain 37° C. temperature and atmosphere with 5% CO2. The next day, Leishmania parasites are isolated from the spleens of mice infected for 9-11 weeks and 4×10^5 isolated parasites in […] of the above media are added to each plate well. Plates are then returned into incubators and infection is allowed to proceed for 24 hours. After the infection of macrophages is completed, […] of compounds of the invention in the above medium, which also contains 5% DMSO, are added to plate wells containing infected macrophages. At the same time control compounds (miltefosine and amphotericin B) and DMSO are added to plates to serve as the positive and negative controls, respectively. After the compound addition, the plates are returned into incubator and cells infected with parasites are cultured for 5 days. At the end of cultivation, […] of 8% paraformaldehyde is added to plate wells and incubated for 15 min at room temperature. Following the incubation, the paraformaldehyde from plate wells is aspirated, and […] of PBS containing 0.2% Triton X-100 is added to wells. After 15 min incubation, the solution is aspirated from wells again, and replaced with SybrGreen Dye solution in PBS (1:125,000 dilution). Infected cells are imaged with Evotec Opera high-content microscope, and the number of parasites in well is determined by counting parasite nuclei visualized by staining with SybrGreen dye. The percentage inhibition of 50%, EC50, is calculated for each compound.
The inhibitory efficacy of the compounds of the invention against proliferation of L. donovani in mouse peritoneal macrophages is provided in Table I.

The term EC50 denotes the midpoint of the concentration-response curve. Take `Cc1nc(C)c(C(=O)Nc2cnc3nc(-c4cc(NC(=O)c5ccco5)ccc4Cl)[nH]c3c2)s1` [Example 5, N-{2-[2-chloro-5-(furan-2-amido)phenyl]-1H-imidazo[4,5-b]pyridin-6-yl}-2,4-dimethyl-1,3-thiazole-5-carboxamide]: the EC50 was 0.57 µM in experiment [1], 1.86 µM in experiment [2] and > 50 µM in experiment [3].

As for `CC(C)OC(=O)Nc1cnc2nc(-c3cc(NC(=O)c4ccco4)ccc3Cl)n(C(=O)OC(C)C)c2c1` [Example 7, propan-2-yl 2-[2-chloro-5-(furan-2-amido)phenyl]-6-{[(propan-2-yloxy)carbonyl]amino}-1H-imidazo[4,5-b]pyridine-1-carboxylate], the EC50 in experiment [1] was 0.64 µM; in experiment [2] it was 0.147 µM; in experiment [3] it was 1.35 µM.

With `O=C(Nc1ccc(Cl)c(-c2nc3ncc([N+](=O)[O-])cc3[nH]2)c1)c1ccco1` [Example 8, N-(4-chloro-3-{6-nitro-1H-imidazo[4,5-b]pyridin-2-yl}phenyl)furan-2-carboxamide], the results for the EC50 in experiment [1], in experiment [2] and in experiment [3] were 0.96 µM, 1.02 µM and 12.4 µM, respectively.

In the case of `CC(C)C(=O)Nc1cnc2nc(-c3cc(NC(=O)c4ccco4)ccc3Cl)[nH]c2c1` [Example 10, N-{4-chloro-3-[6-(2-methylpropanamido)-1H-imidazo[4,5-b]pyridin-2-yl]phenyl}furan-2-carboxamide], the EC50 came to 1.17 µM in experiment [1], 3.7 µM in experiment [2] and 2.29 µM in experiment [3].

Turning to `CNc1cnc2nc(-c3cc(NC(=O)c4ccco4)ccc3Cl)[nH]c2c1` [Example 11, N-{4-chloro-3-[6-(methylamino)-1H-imidazo[4,5-b]pyridin-2-yl]phenyl}furan-2-carboxamide], the results for the EC50 in experiment [1], in experiment [2] and in experiment [3] were 1.84 µM, 1.27 µM and 16.6 µM, respectively.

Regarding `O=C(Nc1ccc(Cl)c(-c2nc3ncc(NC(=O)N4CCCC4)cc3[nH]2)c1)c1ccco1` [Example 12, N-{2-[2-chloro-5-(furan-2-amido)phenyl]-1H-imidazo[4,5-b]pyridin-6-yl}pyrrolidine-1-carboxamide], the EC50 in experiment [1] is 2.34 µM; in experiment [2], 11 µM; in experiment [3] it was > 26.1 µM.

As to `CC(C)CC(=O)Nc1cnc2nc(-c3cc(NC(=O)c4ccco4)ccc3Cl)[nH]c2c1` [Example 14, N-{4-chloro-3-[6-(3-methylbutanamido)-1H-imidazo[4,5-b]pyridin-2-yl]phenyl}furan-2-carboxamide], the concentration giving a half-maximal response (EC50) in experiment [1] came out at 4.5 µM; in experiment [2], 3.3 µM; in experiment [3], 3.3 µM.

As to `CC(C)(C)OC(=O)NCCOC(=O)Nc1cnc2nc(-c3cc(NC(=O)c4ccco4)ccc3Cl)[nH]c2c1` [Example 16, tert-butyl N-{2-[({2-[2-chloro-5-(furan-2-amido)phenyl]-1H-imidazo[4,5-b]pyridin-6-yl}carbamoyl)oxy]ethyl}carbamate], the EC50 was determined as 5.7 µM in experiment [1], 4 µM in experiment [2] and 10.1 µM in experiment [3].

In the case of `COCCC(=O)Nc1cnc2nc(-c3cc(NC(=O)c4ccco4)ccc3Cl)[nH]c2c1` [Example 19, N-{4-chloro-3-[6-(3-methoxypropanamido)-1H-imidazo[4,5-b]pyridin-2-yl]phenyl}furan-2-carboxamide], the half-maximal effective concentration (EC50) was 13.3 µM in experiment [1], > 20 µM in experiment [2] and 25.5 µM in experiment [3].

As to `CC(C)NC(=O)Nc1cnc2nc(-c3cc(NC(=O)c4ccco4)ccc3Cl)[nH]c2c1` [Example 24, N-[4-chloro-3-(6-{[(propan-2-yl)carbamoyl]amino}-1H-imidazo[4,5-b]pyridin-2-yl)phenyl]furan-2-carboxamide], the concentration for a half-maximal effect (EC50) in experiment [1] was 23.2 µM; in experiment [2] it was > 20 µM; in experiment [3], > 39.2 µM.

As to `O=C(CCO)Nc1cnc2nc(-c3cc(NC(=O)c4ccco4)ccc3Cl)[nH]c2c1` [Example 25, N-{4-chloro-3-[6-(3-hydroxypropanamido)-1H-imidazo[4,5-b]pyridin-2-yl]phenyl}furan-2-carboxamide], the figures for the EC50 in experiment [1], in experiment [2] and in experiment [3] were 23.2 µM, > 20 µM and > 50 µM, respectively.

With `O=C(Nc1ccc(Cl)c(-c2nc3ncc(NCc4cccnc4O)cc3[nH]2)c1)c1ccco1` [Example 30], the EC50 in experiment [1] was > 25 µM; in experiment [2] it was > 20 µM; in experiment [3], > 50 µM.

In the case of `NCC(=O)Nc1cnc2nc(-c3cc(NC(=O)c4ccco4)ccc3Cl)[nH]c2c1` [Example 33, N-{3-[6-(2-aminoacetamido)-1H-imidazo[4,5-b]pyridin-2-yl]-4-chlorophenyl}furan-2-carboxamide], the figures for the concentration for a half-maximal effect (EC50) in experiment [1], in experiment [2] and in experiment [3] were > 25 µM, 19.1 µM and > 50 µM, respectively.

As to `CN1CCC(C(=O)Nc2cnc3nc(-c4cc(NC(=O)c5ccco5)ccc4Cl)[nH]c3c2)CC1` [Example 36, N-{2-[2-chloro-5-(furan-2-amido)phenyl]-1H-imidazo[4,5-b]pyridin-6-yl}-1-methylpiperidine-4-carboxamide], the results for the EC50 in experiment [1], in experiment [2] and in experiment [3] were > 25 µM, 19 µM and > 50 µM, respectively.

`O=C(Nc1ccc(Cl)c(-c2nc3ncc(NC(=O)C4CC(F)C4)cc3[nH]2)c1)c1ccco1` (stereo not drawn) [Example 38, N-(4-chloro-3-{6-[(3-fluorocyclobutane)amido]-1H-imidazo[4,5-b]pyridin-2-yl}phenyl)furan-2-carboxamide]: the results for the EC50 in experiment [1], in experiment [2] and in experiment [3] were 2.13 µM, 4.4 µM and 3.7 µM, respectively.

For `COc1ccc(C(=O)Nc2ccc(Cl)c(-c3nc4ncc(NC(=O)OC(C)C)cc4[nH]3)c2)o1` [Example 39, propan-2-yl N-{2-[2-chloro-5-(5-methoxyfuran-2-amido)phenyl]-1H-imidazo[4,5-b]pyridin-6-yl}carbamate], the EC50 in experiment [1] turned out to be 13.8 µM; in experiment [2], 6.7 µM; in experiment [3], 17.7 µM.

In the case of `CC1(C(=O)Nc2cnc3nc(-c4cc(NC(=O)c5ccco5)ccc4Cl)[nH]c3c2)COC1` [Example 43, N-{4-chloro-3-[6-(3-methyloxetane-3-amido)-1H-imidazo[4,5-b]pyridin-2-yl]phenyl}furan-2-carboxamide], the EC50 is > 25 µM in experiment [1], > 20 µM in experiment [2] and 47.4 µM in experiment [3].
